Assay type in all cases: cell-based
For one data set, the system named is M. marinum 6423. Briefly: Antimycobacterial activity toward atypical mycobacteria, MIC in broth. The conditions noted are these: Mycobacterium marinum, 6423; read-out: MIC (μg/mL) M. marinum 6423.
The test system of another data set is M. avium 103317. The data set is described as above. The conditions noted are these: Mycobacterium avium, 103317; read-out: MIC (μg/mL) M. avium 103317.
For data set [1], the system named is intracellular M. tuberculosis. The data set is described as follows: Inhibitory activity on intramacrophagic mycobacteria in U937 cells differentiated into macrophages. The conditions noted are these: Mycobacterium tuberculosis, read-out: MIC (μg/mL) Inhibition of intramacrophagic mycobacteria. On the procedure:
Inhibitory Activity of 6e and 7c on Intramacrophagic Mycobacteria.
The bactericidal activity of such compounds on intracellular mycobacteria was studied on U937 cells (INC-FLOW), a human hystiocytic cell line. Cells were differentiated into macrophages with 20 ng/mL of phorbol myristate acetate (PMA, Sigma) and grown in RPMI 1640 medium with 10% fetal calf serum.

For the next data set, the system named is M. smegmatis 103599. The data set is described as follows: Antimycobacterial activity toward atypical mycobacteria, MIC in broth. The conditions noted are these: Mycolicibacterium smegmatis, 103599; read-out: MIC (μg/mL) M. smegmatis 103599.
The test system of the next data set is VERO cells. Briefly: Cytotoxicity on Vero cell monolayers (MNTD50). The conditions noted are these: maximum 50% non-toxic dose, 5 days. The method, then:
The cytotoxicity was evaluated on Vero cell monolayers (ICN-Flow). They were inoculated in 6-well plates each containing 9×10^4 cells and incubated in DMEM with 5% FCS for 24 h at 37° C. in a 5% CO2 incubator. After 24 h of culture, the medium was changed and a new medium containing decreasing doses of the substances under study was added.
After 5 days, the cells were trypsinized and counted in a Neubauer chamber under a light microscope. All the tests were done in triplicate. The maximum 50% non-toxic dose (MNTD50) was defined as the drug concentration that decreased cell multiplication less than 50% with respect to the control.

In another data set the test system is M. tuberculosis 103471. The data set is described as follows: Antimycobacterial activity, MIC in Middlebrook 7H9 broth (NCCLS procedure). The conditions noted are these: for MIC: Mycobacterium tuberculosis, 103471, read-out: M. tuberculosis 103471 MIC (μg/mL).

Structures are written as SMILES. Values after ≈ are worked out from the molar mass of the structure shown. A value given as a limit tells only on which side of the number the result lay.

With `Cc1ccc(-c2cc(CN3CCSCC3)c(C)n2-c2ccc(F)cc2)cc1` [Compound 6e, N-(p-fluorophenyl)-2-methyl-3-thiomorpholinomethyl-5-(p-methylphenyl)pyrrole], the MIC was 8 µg/mL (≈ 21 µM) with M. marinum 6423; 8 µg/mL (≈ 21 µM) in the data set on M. avium 103317; 3 µg/mL (≈ 7.88 µM) in data set [1]; 16 µg/mL (≈ 42 µM) in the data set on M. smegmatis 103599; 0.4 µg/mL (≈ 1.05 µM) with M. tuberculosis 103471. Besides, in the data set on VERO cells, the “MNTD50 (μg/mL) VERO cells” value worked out at 64 µg/mL.

As to `CO[C@H]1/C=C/O[C@@]2(C)Oc3c(C)c(O)c4c(O)c(c(/C=N/N5CCN(C)CC5)c(O)c4c3C2=O)NC(=O)/C(C)=C\C=C\[C@H](C)[C@H](O)[C@@H](C)[C@@H](O)[C@@H](C)[C@H](OC(C)=O)[C@@H]1C` [Rifampin, reference compound], the MIC in the data set with M. marinum 6423 came to 0.6 µg/mL (≈ 0.729 µM); in the data set with M. avium 103317 it was 0.3 µg/mL (≈ 0.365 µM); in data set [1], 3 µg/mL (≈ 3.65 µM); with M. smegmatis 103599 it was 32 µg/mL (≈ 38.9 µM); in the data set with M. tuberculosis 103471, 0.3 µg/mL (≈ 0.365 µM). Besides, in the data set with VERO cells, the “MNTD50 (μg/mL) VERO cells” value is 64 µg/mL. In the data set on M. tuberculosis 103471 (extracellular M. tuberculosis 103471), the “M. tuberculosis 103471 MIC” value turned out to be 0.3 µg/mL.

On to `Cc1c(CN2CCSCC2)cc(-c2ccc(F)cc2)n1-c1ccccc1F` [Compound 7c, N-(o-fluorophenyl)-2-methyl-3-thiomorpholinomethyl-5-(p-fluorophenyl)pyrrole], for which the MIC in the data set on M. marinum 6423 is over 16 µg/mL; in the data set on M. avium 103317 it was 8 µg/mL (≈ 20.8 µM); in data set [1] it was 3 µg/mL (≈ 7.8 µM); in the data set on M. smegmatis 103599, 8 µg/mL (≈ 20.8 µM); with M. tuberculosis 103471, 0.5 µg/mL (≈ 1.3 µM). Moreover, the “MNTD50 (μg/mL) VERO cells” value in the data set on VERO cells stood at 8 µg/mL.

Source of the values: US8012970B2, “Derivatives of 1-{[1,5-bis(4-chlorophenyl)-2-methyl-1H-pyrrol-3-yl]methyl}-4-methylpiperazine, synthesis process and uses thereof” (priority 2005, dated 2011).
